From patent US12678464B2, “Methods for stem cell transplantation” (The UAB Research Foundation, priority 2015, dated 2026)
Values after ≈ are worked out from the molar mass of the structure shown. Read-outs that look alike come from different tables or passages of the source.

What was measured:
[1] = cited from earlier work
[2] = cited from earlier work; remark: listed apart in the source
[3] = 1-octanol/water (pH 7.4) buffer solution; cited from earlier work
haploidentical HCT [4] = details: CTN 0603; cited from earlier work
[5] = constituted, cited from earlier work
clinical = details: human, in vivo, intravenous, 50 mg/kg
[6] = LexiComp monograph; cited from earlier work
haploidentical HCT [7] = details: at 1 year; cited from earlier work

| SMILES | solubility in chloroform ([1]; chloroform, in words) | solubility in ethanol ([1]; in words) | solubility in methanol ([1]; in words) | solubility in water ([1]; water, in words) | solubility in acetone ([1]; acetone, in words) | solubility in an acidic medium ([1]; pH 3.6) [µg/mL] | solubility in water ([1]; pH 7.4) [µg/mL] | pKa ([2]; morpholino group) | pKa ([2]; phenolic group) | apparent partition coefficient [3] | relapse rate (haploidentical HCT [4]) [%] | physically and chemically stable ([5]; refrigerated) | physically and chemically stable ([5]; room temperature) [h] | half-life (clinical) [h] | elimination half-life [6] [h] | relapse rate (haploidentical HCT [7]) [%] |
| --- | --- | --- | --- | --- | --- | --- | --- | --- | --- | --- | --- | --- | --- | --- | --- | --- |
| C=CC[C@@H]1/C=C(\C)C[C@H](C)C[C@H](OC)[C@H]2O[C@@](O)(C(=O)C(=O)N3CCCC[C@H]3C(=O)O[C@H](/C(C)=C/[C@@H]3CC[C@@H](O)[C@H](OC)C3)[C@H](C)[C@@H](O)CC1=O)[C@H](C)C[C@@H]2OC [Tacrolimus] | very soluble | freely soluble | very soluble | practically insoluble | – | – | – | – | – | – | – | – | – | – | – | – |
| COc1c(C)c2c(c(O)c1C/C=C(\C)CCC(=O)OCCN1CCOCC1)C(=O)OC2 [Mycophenolate mofetil, 2-morpholinoethyl (E)-6-(1,3-dihydro-4-hydroxy-6-methoxy-7-methyl-3-oxo-5-isobenzofuranyl)-4-methyl-4-hexenoate] | – | sparingly soluble | soluble | slightly soluble | freely soluble | 4270 (≈ 9.85 mM) | 43 (≈ 0.0992 mM) | 5.6 | 8.5 | 238 | – | – | – | – | – | – |
| O=P1(N(CCCl)CCCl)NCCCO1 (stereo not shown) [Cyclophosphamide, 2-[bis(2-cholorethyl)amino]tetrahydro-2H-1,3,2-oxazaphosphorine 2-oxide monohydrate] | – | – | – | – | – | – | – | – | – | – | 45 | six | 24 | 60 | 3 to 12 | 51 |
